As usually defined, the melting point is the temperature, or range, at which the solid turns liquid.

`CC(=O)C(=O)N[C@H](CO[N+](=O)[O-])c1ccccc1` [Example 4, N-[(1S)-2-(Nitrooxy)-1-phenylethyl]-2-oxopropanamide] displayed a melting point of 76 to 77 °C.
The value for `CC(=O)C(=O)N[C@H](CO[N+](=O)[O-])Cc1ccccc1` [Example 5, N-[(1S)-2-(Nitrooxy)-1-benzylethyl]-2-oxopropanamide] was 72 to 75 °C.

The values are drawn from patent publication US20080287407A1, “Nitric Oxide Releasing Pyruvate Compounds, Compositions and Methods of Use” (NitroMed, Inc., priority 2003, published 2008).
